The target of the assay is T1, GAL4-DBD/RORγ-LBD (Homo sapiens, UniProt P51449).
T1 construct: expressed in transfected cells; host or cells: HEK293T
Put plainly: RORγt transactivation reporter assay (GAL4-DBD/RORγ-LBD, luciferase read out). Conditions: HEK293T cells, GAL4-UAS luciferase reporter, overnight (18-24 hours) incubation. In kind it is cell-based. A digest of the protocol:
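HEK293T cells were transiently co-transfected with GAL4-DBD/RORγt-LBD (SV40-Renilla transfection control) and a 9×GAL4-UAS firefly Luc2P reporter. Compounds (0.4% DMSO in the compound solution) were added 5 h post-transfection in FBS-free DMEM for 18–24 h at 37 °C. IC50 was taken from the normalised Dual-Glo luciferase signal.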
(In a reporter assay the amount or activity of a reporter protein is the signal.)

We go through twelve molecules from patent US10435402B2, “Bicyclic compounds, compositions and medicinal applications thereof” (Advinus Therapeutics Limited, priority 2015, dated 2019).

pIC50: −log10 of the molar value.

By pIC50 is commonly meant the IC50 on a negative log10 scale, so that one unit is a factor of ten.

T1 sequence (P51449 269-508 limits assumed): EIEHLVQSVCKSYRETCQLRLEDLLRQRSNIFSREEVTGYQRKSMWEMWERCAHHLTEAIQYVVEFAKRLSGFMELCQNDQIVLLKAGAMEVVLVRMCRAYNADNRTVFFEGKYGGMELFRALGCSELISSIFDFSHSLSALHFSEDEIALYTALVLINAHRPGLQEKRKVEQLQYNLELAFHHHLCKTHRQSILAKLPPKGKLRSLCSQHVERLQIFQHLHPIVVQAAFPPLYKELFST
T1 sequence (P04386 1-147 partner limits assumed): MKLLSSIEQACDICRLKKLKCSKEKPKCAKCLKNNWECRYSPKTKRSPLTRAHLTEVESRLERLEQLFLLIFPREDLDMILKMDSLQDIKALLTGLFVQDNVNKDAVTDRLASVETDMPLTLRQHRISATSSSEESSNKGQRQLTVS

For `O=C(c1c(Cl)ccc(F)c1Cl)c1cc(-c2ccc(C(=O)N3CCOCC3)cc2)c2ccccn12` [Example F-3, [4-[3-(2,6-dichloro-3-fluoro-benzoyl)indolizin-1-yl]phenyl]-morpholino-methanone], the pIC50 was < 5.30.
In the case of `CCS(=O)(=O)N1CC=C(c2cc(C(=O)c3c(Cl)cccc3Cl)n3ccccc23)CC1` [Example G-1, (2,6-dichlorophenyl)-[1-(1-ethylsulfonyl-3,6-dihydro-2H-pyridin-4-yl)indolizin-3-yl]methanone], the pIC50 is < 5.30.
Take `CCS(=O)(=O)N1CCC=C(c2cc(C(=O)c3c(Cl)ccc(F)c3Cl)n3ccccc23)C1` [Example G-2, (2,6-dichloro-3-fluoro-phenyl)-[1-(1-ethylsulfonyl-3,6-dihydro-2H-pyridin-5-yl)indolizin-3-yl]methanone]: the pIC50 was < 5.30.
Consider `O=C(O)c1ccc(-c2cc(C(=O)c3c(Cl)cccc3C(F)(F)F)n3c2CCCC3)cc1` [Example H-1, 4-[3-[2-chloro-6-(trifluoromethyl)benzoyl]-5,6,7,8-tetrahydroindolizin-1-yl]benzoic acid], for which the pIC50 was > 6.30.
Consider `Cc1c(-c2ccc(C(=O)O)cc2F)c2n(c1C(=O)c1c(Cl)cccc1Cl)CCCC2` [Example H-2, 4-[3-(2,6-dichlorobenzoyl)-2-methyl-5,6,7,8-tetrahydroindolizin-1-yl]-3-fluoro-benzoic acid], for which the pIC50 was > 6.30.
For the molecule `O=C(O)c1ccc(-c2cc(C(=O)c3c(Cl)cccc3C(F)(F)F)n3c2CCCC3)c(F)c1` [Example H-4, 4-[3-[2-chloro-6-(trifluoromethyl)benzoyl]-5,6,7,8-tetrahydroindolizin-1-yl]-3-fluoro-benzoic acid], the pIC50 was < 5.30.
The result for `O=C(O)c1ccc(-c2nc(C(=O)c3c(Cl)ccc(F)c3Cl)n3ccccc23)cc1` [Example I-1, Sodium 4-[3-(2,6-dichloro-3-fluoro-benzoyl)imidazo[1,5-a]pyridin-1-yl]benzoate] reads > 6.30.
Regarding `O=C(O)c1ccc(-c2cc(Cc3c(F)cccc3Cl)n3ccccc23)cc1` [Example J-1, 4-[3-[(2-chloro-6-fluoro-phenyl)methyl]indolizin-1-yl]benzoic acid], the pIC50 was > 6.30.
The result for “(2,6-dichlorophenyl)-[1-(4-methylsulfonylphenyl)indolizin-3-yl]methanone [Example A-20]” reads < 5.30.
“ethyl 4-[3-(2-bromo-6-methyl-benzoyl)indolizin-1-yl]benzoate [Example A-66]”: the pIC50 is > 6.30.
The result for “ethyl 4-[3-(2-chloro-6-fluoro-benzoyl)-8-fluoro-indolizin-1-yl]-3-fluoro-benzoate [Example A-33]” reads > 6.30.
With “ethyl 4-[3-(2-chloro-6-fluoro-benzoyl)indolizin-1-yl]-3-fluoro-benzoate [Example A-25]”, the pIC50 is > 6.30.
